Measurements as given in ChEMBL document CHEMBL5506048, “Modular Biomimetic Strategy Enables Discovery and SAR Exploration of Oxime Macrocycles as Influenza A Virus (H1N1) Inhibitors” (J Med Chem, 2024).
Calls of active or inactive are those of the source. No cut-off for these calls is given here.

Tests used:
Influenza A virus [1] = assay: Antiviral activity against Influenza virus H1N1 A/Puerto Rico/8/34 (A/PR/8/34) infected in human Calu-3 cells assessed as viral RNA measured after 3 days by one-time real time PCR assay; assay type: functional, organism-based; conditions: Calu-3, 72 h
Calu-3 = assay: Cytotoxicity against human Calu-3 cells assessed as cell viability measured after 3 days by CellTiter-Lumi Steady Plus Luminescent Cell Viability Assay Kit; assay type: functional; conditions: Calu-3, 72 h, time 3 day
[2] = Selectivity index, ratio of CC50 for human Calu-3 cells to EC50 for antiviral activity against Influenza virus HINI A/Puerto Rico/8/34 (A/PR/8/34); assay type: toxicity; conditions: read-out: Selectivity Index
Influenza A virus [3] = assay: Antiviral activity against Influenza virus H1N1 A/Puerto Rico/8/34 (A/PR/8/34) 2.5TCID50 infected in human Calu-3 cells assessed as reduction in virus-induced cytopathic effect by measuring cell rounding at 0.0156 to 37 uM measured after 3 days by immunofluorescence assay; assay type: functional, organism-based; conditions: dose 0.0156-37 µM, time 3.0 day
Influenza A virus [4] = assay: Antiviral activity against Influenza virus H1N1 A/Puerto Rico/8/34 (A/PR/8/34) 2.5TCID50 infected in human Calu-3 cells assessed as reduction in virus-induced cytopathic effect by measuring degeneration at 0.0156 to 37 uM measured after 3 days by immunofluorescence assay; assay type: functional, organism-based; conditions: dose 0.0156-37 µM, time 3.0 day
Influenza A virus [5] = assay: Antiviral activity against Influenza virus H1N1 A/Puerto Rico/8/34 (A/PR/8/34) 2.5TCID50 infected in human Calu-3 cells assessed as reduction in virus-induced cytopathic effect by measuring sloughing at 0.0156 to 37 uM measured after 3 days by immunofluorescence assay; assay type: functional, organism-based; conditions: dose 0.0156-37 µM, time 3.0 day
Influenza A virus [6] = assay: Antiviral activity against HIV pseudotyped H5N1 HA infected in human 293T cells assessed as inhibition of viral entry into cells by measuring intensity of chemiluminescence measured after 3 days by Bright-Glo luciferase assay; assay type: functional, organism-based; conditions: HEK293T, time 3.0 day
Ebolavirus = assay: Antiviral activity against HIV pseudotyped EBOV GP infected in human 293T cells assessed as inhibition of viral entry into cells by measuring intensity of chemiluminescence measured after 3 days by Bright-Glo luciferase assay; assay type: functional, organism-based; conditions: HEK293T, time 3.0 day
Influenza A virus [7] = assay: Antiviral activity against Influenza virus HIN1 (A/California/07/2009 pdm09) infected in human Calu-3 cells assessed as viral RNA measured after 3 days by one-time real time PCR assay; assay type: functional, organism-based; conditions: Calu-3, 72 h
Influenza A virus [8] = assay: Antiviral activity against Influenza virus H3N2 (A/Hong Kong/8/68) infected in human Calu-3 cells assessed as viral RNA measured after 3 days by one-time real time PCR assay; assay type: functional, organism-based; conditions: Calu-3, 72 h
Influenza B virus = assay: Antiviral activity against Influenza virus Flu B (B/Taiwan/2/62) infected in human Calu-3 cells assessed as viral RNA measured after 3 days by one-time real time PCR assay; assay type: functional, organism-based; conditions: B/Taiwan/2/62, Calu-3, 72 h
Influenza A virus [9] = assay: Synergistic antiviral activity against Influenza virus H1N1 A/Puerto Rico/8/34 (A/PR/8/34) infected in human Calu-3 cells assessed as combination index of 50% inhibition at 0.06 nM in presence of 450 nM oseltamivir acid; assay type: functional
Influenza A virus [10] = assay: Synergistic antiviral activity against Influenza virus H1N1 A/Puerto Rico/8/34 (A/PR/8/34) infected in human Calu-3 cells assessed as combination index of 50% inhibition at 0.24 nM in presence of 170 nM oseltamivir acid; assay type: functional
Influenza A virus [11] = assay: Synergistic antiviral activity against Influenza virus H1N1 A/Puerto Rico/8/34 (A/PR/8/34) infected in human Calu-3 cells assessed as combination index of 50% inhibition at 0.98 nM in presence of 172 nM oseltamivir acid; assay type: functional
Influenza A virus [12] = assay: Synergistic antiviral activity against Influenza virus H1N1 A/Puerto Rico/8/34 (A/PR/8/34) infected in human Calu-3 cells assessed as combination index of 50% inhibition at 2.61 nM in presence of 62.5 nM oseltamivir acid; assay type: functional
Influenza A virus [13] = assay: Synergistic antiviral activity against Influenza virus H1N1 A/Puerto Rico/8/34 (A/PR/8/34) infected in human Calu-3 cells assessed as combination index of 50% inhibition at 3.91 nM in presence of 83.1 nM oseltamivir acid; assay type: functional
Influenza A virus [14] = assay: Synergistic antiviral activity against Influenza virus H1N1 A/Puerto Rico/8/34 (A/PR/8/34) infected in human Calu-3 cells assessed as combination index of 50% inhibition at 15.6 nM in presence of 31 nM oseltamivir acid; assay type: functional
Influenza A virus [15] = assay: Synergistic antiviral activity against Influenza virus H1N1 A/Puerto Rico/8/34 (A/PR/8/34) infected in human Calu-3 cells assessed as combination index of 50% inhibition at 28.3 nM in presence of 3.91 nM oseltamivir acid; assay type: functional
[16] = Stability of the compound in RPMI 1640 cell culture medium containing 10% fetal bovine serum assessed as compound remaining measured after 24 hrs by LC-MS/MS analysis; assay type: physicochemical, cell-free; conditions: cattle, read-out: Stability
[17] = Stability of the compound in pH 7.4 PBS buffer assessed as compound remaining measured after 24 hrs by LC-MS/MS analysis; assay type: physicochemical; conditions: read-out: Stability
[18] = Half life in ICR (CD-1) mouse at 10 mg/kg, po measured upto 24 hrs by LC-MS/MS analysis; assay type: ADME, organism-based; conditions: in vivo
[19] = Tmax in ICR (CD-1) mouse at 10 mg/kg, po measured upto 24 hrs by LC-MS/MS analysis; assay type: ADME, organism-based; conditions: in vivo
[20] = Cmax in ICR (CD-1) mouse at 10 mg/kg, po measured upto 24 hrs by LC-MS/MS analysis; assay type: ADME, organism-based; conditions: in vivo
[21] = AUC (0 to infinity) in ICR (CD-1) mouse at 10 mg/kg, po measured upto 24 hrs by LC-MS/MS analysis; assay type: ADME, organism-based; conditions: in vivo
[22] = Oral bioavailability in ICR (CD-1) mouse at 10 mg/kg measured upto 24 hrs by LC-MS/MS analysis; assay type: ADME, organism-based; conditions: in vivo
[23] = Half life in ICR (CD-1) mouse at 2 mg/kg, iv measured upto 24 hrs by LC-MS/MS analysis; assay type: ADME, organism-based; conditions: in vivo
[24] = AUC (0 to infinity) in ICR (CD-1) mouse at 2 mg/kg, iv measured upto 24 hrs by LC-MS/MS analysis; assay type: ADME, organism-based; conditions: in vivo
[25] = Clearance in ICR (CD-1) mouse at 2 mg/kg, iv measured upto 24 hrs by LC-MS/MS analysis; assay type: ADME, organism-based; conditions: in vivo
[26] = Volume of distribution in ICR (CD-1) mouse at 2 mg/kg, iv measured upto 24 hrs by LC-MS/MS analysis; assay type: ADME, organism-based; conditions: in vivo

With `C=C1Cc2cc(C(F)(F)F)ccc2C(=O)NCC2(CCC2)/C(=N/OC)CCCOC1=O` the EC50 (Influenza A virus [1]) was 23 nM, the EC90 (Influenza A virus [1]; time 3 day) was 142 nM and the CC50 (Calu-3) was greater than 100000 nM. For the same molecule, the selectivity ratio [2] was greater than 4350, the Activity (Influenza A virus [3]) was “Active” and the Activity (Influenza A virus [4]) was “Active”. The Activity (Influenza A virus [5]) was “Active”, the Activity (Influenza A virus [6]) was “inactive” and the Activity (Ebolavirus) was “inactive”. It also gave an EC50 (Influenza A virus [7]) of 62 nM, an EC50 (Influenza A virus [8]) greater than 50000 nM and an EC50 (Influenza B virus) greater than 50000 nM. The CI50 (Influenza A virus [9]) was 0.84, the CI50 (Influenza A virus [10]) was 0.32 and the CI50 (Influenza A virus [11]) was 0.35. The CI50 (Influenza A virus [12]) was 0.2, the CI50 (Influenza A virus [13]) was 0.28 and the CI50 (Influenza A virus [14]) was 0.57. The CI50 (Influenza A virus [15]) was 0.93, the remaining at 24 h [16] was greater than 90% and the remaining at 24 h [17] was greater than 90%. It also gave a half-life [18] of 39 min, a Tmax [19] of 15 min and a Cmax [20] of 2.42 ng/mL. For the same molecule, the AUC(0-inf) [21] was 2.65 ng·h/mL, the bioavailability [22] was 0.12% and the half-life [23] was 24.6 min. The AUC(0-inf) [24] was 222 ng·h/mL, the clearance [25] was 151 mL/min/kg and the Vd [26] was 3.12 L/kg.
